For experiment [1], the target named is cAMP-dependent protein kinase catalytic subunit alpha (Bos taurus, UniProt P00517). Kind of experiment: Kinase Inhibition Assay. The note with it: 25 °C. On the procedure:
(§1) In vitro kinase assay using purified enzyme, was incubated at room temperature with substrate, and test compounds in the presence of ATP/[gamma-33P]ATP. 33P incorporation was measured with a Top Count (Packard). IC50 is the inhibitor concentration which inhibits 50% of kinase activity that catalyzes the transfer of the terminal phosphate from 33P labeled ATP to the substrate.

For experiment [2], the target named is Calcium/calmodulin-dependent protein kinase type II subunit alpha (Rattus norvegicus, UniProt P11275). Kind of experiment: Kinase Inhibition Assay. The note with it: 25 °C. On the procedure: as §1

Each structure is given as a SMILES string.

Calcium/calmodulin-dependent protein kinase type II subunit alpha, sequence (P11275 whole entry): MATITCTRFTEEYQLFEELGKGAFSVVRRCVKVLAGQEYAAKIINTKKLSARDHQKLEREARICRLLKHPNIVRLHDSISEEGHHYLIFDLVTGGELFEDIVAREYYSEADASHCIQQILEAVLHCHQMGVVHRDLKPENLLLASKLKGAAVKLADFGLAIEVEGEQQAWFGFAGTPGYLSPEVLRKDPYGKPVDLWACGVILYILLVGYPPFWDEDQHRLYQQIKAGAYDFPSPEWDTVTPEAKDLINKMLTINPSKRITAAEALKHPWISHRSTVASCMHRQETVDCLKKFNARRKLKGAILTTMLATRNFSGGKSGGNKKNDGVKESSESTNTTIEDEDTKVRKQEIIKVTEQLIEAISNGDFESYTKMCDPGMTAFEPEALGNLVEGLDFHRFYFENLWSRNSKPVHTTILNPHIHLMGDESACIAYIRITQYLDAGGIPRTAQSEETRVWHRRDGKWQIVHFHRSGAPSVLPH

In experiment [1], `O=C1NC(=O)c2c1c1c3ccccc3[nH]c1c1[nH]c3c(Br)cccc3c21` [5-bromo-3,13,23-triazahexacyclo[14.7.0.0^{2,10}.0^{4,9}.0^{11,15}.0^{17,22}]tricosa-1(16),2(10),4(9),5,7,11(15),17(22),18,20-nonaene-12,14-dione] yielded an IC50 of more than 20 µM.
Compound `O=C1NC(=O)c2c1c1c3ccccc3[nH]c1c1[nH]c3ccccc3c21` [6,7,12,13-Tetrahydro-5,7-dioxo-5H-indolo[2,3-a]pyrrolo[3,4-c]carbazole] showed an IC50 in experiment [1] of more than 2 µM.
Regarding `O=C1NC(=O)c2c1c1c3ccccc3[nH]c1c1[nH]c3cc(C(F)(F)F)ccc3c21` [6-(trifluoromethyl)-3,13,23-triazahexacyclo[14.7.0.0^{2,10}.0^{4,9}.0^{11,15}.0^{17,22}]tricosa-1(16),2(10),4(9),5,7,11(15),17(22),18,20-nonaene-12,14-dione], the IC50 in experiment [1] and in experiment [2] was more than 2 µM each time.
As for `O=C1NC(=O)c2c1c1c3ccccc3[nH]c1c1[nH]c3cc(Br)ccc3c21` [6-bromo-3,13,23-triazahexacyclo[14.7.0.0^{2,10}.0^{4,9}.0^{11,15}.0^{17,22}]tricosa-1(16),2(10),4(9),5,7,11(15),17(22),18,20-nonaene-12,14-dione], in experiment [1], the IC50 is more than 20 µM. For the same compound, the EC50 in experiment [2] worked out at 0.07 µM.
`COc1ccc2c(c1)[nH]c1c3[nH]c4cc(Br)ccc4c3c3c(c21)C(=O)NC3=O` [6-bromo-20-methoxy-3,13,23-triazahexacyclo[14.7.0.0^{2,10}.0^{4,9}.0^{11,15}.0^{17,22}]tricosa-1(16),2(10),4(9),5,7,11(15),17(22),18,20-nonaene-12,14-dione]: the IC50 in experiment [1] and in experiment [2] was more than 2 µM in each case.
Regarding `O=C1NC(=O)c2c1c1c3ccccc3[nH]c1c1[nH]c3cc(Cl)ccc3c21` [6-chloro-3,13,23-triazahexacyclo[14.7.0.0^{2,10}.0^{4,9}.0^{11,15}.0^{17,22}]tricosa-1(16),2(10),4(9),5,7,11(15),17(22),18,20-nonaene-12,14-dione], in experiment [1], the IC50 is more than 2 µM.
`O=C1NC(=O)c2c1c1c3ccccc3[nH]c1c1[nH]c3cc(F)ccc3c21` [6-fluoro-3,13,23-triazahexacyclo[14.7.0.0^{2,10}.0^{4,9}.0^{11,15}.0^{17,22}]tricosa-1(16),2(10),4(9),5,7,11(15),17(22),18,20-nonaene-12,14-dione] showed an IC50 in experiment [1] of more than 2 µM. Further, the EC50 in experiment [2] is 0.04 µM.
In turn, `COc1ccc2c(c1)[nH]c1c3[nH]c4ccccc4c3c3c(c21)C(=O)NC3=O` [6-methoxy-3,13,23-triazahexacyclo[14.7.0.0^{2,10}.0^{4,9}.0^{11,15}.0^{17,22}]tricosa-1(16),2(10),4(9),5,7,11(15),17(22),18,20-nonaene-12,14-dione] yielded a concentration for half-maximal inhibition (IC50) in experiment [1] of more than 2 µM.
The same measure, in the same setting: the result for `Cc1ccc2c(c1)[nH]c1c3[nH]c4ccccc4c3c3c(c21)C(=O)NC3=O` [6-methyl-3,13,23-triazahexacyclo[14.7.0.0^{2,10}.0^{4,9}.0^{11,15}.0^{17,22}]tricosa-1(16),2(10),4(9),5,7,11(15),17(22),18,20-nonaene-12,14-dione] reads more than 2 µM.
Turning to `O=C1NC(=O)c2c1c1c3ccccc3[nH]c1c1[nH]c3ccc(Br)cc3c21` [7-bromo-3,13,23-triazahexacyclo[14.7.0.0^{2,10}.0^{4,9}.0^{11,15}.0^{17,22}]tricosa-1(16),2(10),4(9),5,7,11(15),17(22),18,20-nonaene-12,14-dione], the IC50 was more than 20 µM in experiment [1] and less than 1.25 µM in experiment [2]. Besides, the EC50 in experiment [2] was 0.07 µM.
`Cn1c2ccccc2c2c3c(c4c5ccc(Br)cc5[nH]c4c21)C(=O)NC3=O` [indolocarbazole deriv. 4(f)] came in with an IC50 in experiment [1] of more than 2 µM. Moreover, the EC50 in experiment [2] amounted to 0.08 µM.
As to `Cn1c2ccccc2c2c3c(c4c5ccc(F)cc5[nH]c4c21)C(=O)NC3=O` [indolocarbazole deriv. 4(h)], the IC50 in experiment [1] and in experiment [2] was more than 2 µM in each case.

One may read the IC50 as the concentration that inhibits the measured activity by half. For orientation: EC50 means the concentration that produces a half-maximal response.

(Values after BindingDB's records for doi:10.1021/jm0256169 (Eli Lilly, 2003).)
